Experimental data taken from patent US5145855A, “6- and 7-deoxyforskolin and derivatives thereof” (Hoechst Roussel Pharmaceuticals, Inc., priority 1991, dated 1992).
≈ marks a conversion by molar mass, not a printed value.

Test system: isolated guinea pig left atrium
Experiment: electrically-driven guinea pig left atrium contractile force assay (positive inotropic effect)
Conditions: for Ionotropic Activity (% Change of Contractile Force): at the concentration of the same line (extrapolated ED50: A 0.04, B 0.073 μg/ml)
Experimental: The forskolin derivatives of the present invention are useful in the treatment of cardiac failure by virtue of their ability to elicit a positive inotropic effect as determined in the isolated guinea pig atria contractile force assay. The electrically-driven guinea pig left atrium assay is performed as follows: Male guinea pigs weighing 200-300 grams are stunned with a blow to the back of the head. The heart is rapidly removed and placed in a petri dish containing Krebs solution. The ventricle is separated from the atria, the atria are sectioned in the right and left atria, and double-O silk ligatures are tied to the apex of the left atrium. The atrium is fixed to a pair of platinum plate electrodes and suspended in a 20-ml tissue bath containing Kreb's solution aerated with 95% oxygen-5% carbon dioxide at 37° C. One end of the atrium is fixed to a hook in the electrode and the other end is connected to a Grass FTO3 force displacement transducer. Resting tension and stabilization time are the same as described above. The atrium is stimulated at 3 Hz, 0.5 msec duration at supramaximal voltage (constant current) via a Grass S88 stimulator and constant current unit. Force of contraction is continuously displaced on a Gould recorder. Test drug is prepared and is added to the tissue baths. Change in contractile force from baseline is determined for each concentration, and the change in contractile force (g) is plotted against accumulated drug concentration (μg/ml) The activity of the test drug, i.e., the increase in contractile force (g) from the stabilized force expressed as the percentage change at a given concentration is determined graphically, as is the ED50 -value, i.e., the extrapolated dose (μg/ml) which increases the contractile force by 50% over the stabilized rate.

SMILES	EC50 (Cavia porcellus, isolated left atrium, stimulated at 3 Hz, 37° C., Krebs solution, read-out: Extrapolated ED50 value (concentration which increases the contractile force by 50%))	Ionotropic Activity (% Change of Contractile Force)	Extrapolated ED50 value (concentration which increases the contractile force by 50%) (isolated left atrium, stimulated at 3 Hz, 37° C., Krebs solution)
C=C[C@@]1(C)CC(=O)[C@]2(O)[C@@]3(C)[C@@H](O)CCC(C)(C)[C@@H]3[C@H](O)[C@H](OC(C)=O)[C@@]2(C)O1 [B, Forskolin]	0.073 µg/mL (≈ 0.178 µM)	50%	
C=CC1(C)CC(=O)C2(O)C(C)(O1)C(Oc1ncccn1)CC1C(C)(C)CCC(O)C12C.Cl (stereo not shown) [A, 6-Deoxy-7-desacetyl-7-(pyrimidin-2-yl)forskolin hydrochloride]		50%	0.04 µg/mL
